Laboratory results from US7732604B2, “Triazolopyrazine derivatives” (Pfizer Inc., priority 2006, dated 2010).
Where two headings read alike, the source gives them in different places.

Biological target: T1, HGFR (Homo sapiens, UniProt P08581)
T1 construct: purchased Upstate 14-526
Test: HGFR continuous-coupled spectrophotometric assay (tyrosine kinase activity on Met-2 substrate peptide)
Assay type: biochemical
Conditions: HGFR 50 nM, Met-2 peptide 0.5 mM, ATP 300 μM, 37° C., absorbance 340 nm

T1 sequence (P08581 974-1390 limits assumed): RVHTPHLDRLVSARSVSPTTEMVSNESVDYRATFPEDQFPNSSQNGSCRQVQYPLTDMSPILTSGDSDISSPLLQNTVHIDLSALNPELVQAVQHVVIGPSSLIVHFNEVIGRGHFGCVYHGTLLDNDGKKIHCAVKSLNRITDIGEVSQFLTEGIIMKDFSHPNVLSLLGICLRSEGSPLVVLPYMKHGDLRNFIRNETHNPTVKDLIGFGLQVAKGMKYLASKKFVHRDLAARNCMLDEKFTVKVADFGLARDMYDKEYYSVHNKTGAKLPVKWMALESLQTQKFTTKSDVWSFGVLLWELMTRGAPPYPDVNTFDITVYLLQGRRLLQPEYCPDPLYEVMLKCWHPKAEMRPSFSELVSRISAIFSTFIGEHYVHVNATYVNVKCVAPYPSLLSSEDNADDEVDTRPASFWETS

Compound | Ki (read-out: Ki) | Ki (Ki)
CCc1noc(CN(C)c2cnc3nnn(Cc4ccc5ncccc5c4)c3n2)n1 [Example 91, N-[(3-ethyl-124-oxa-diazol-5-yl)meth-yl]-N-meth-yl-1-(quino-lin-6-yl-methyl)-1H-[1,2,3]tri-azolo[4,5-b]pyra-zin-6-amine] | 25 nM | 
CC1(CO)CCN(c2cnc3nnn(Cc4ccc5ncccc5c4)c3n2)CC1 [Example 94, {4-methyl-1-[1-(quino-lin-6-yl-methyl)-1H-[1,2,3]tri-azolo[4,5-b]pyra-zin-6-yl]pipe-ridin-4-yl}methanol] | 36 nM | 
CN(Cc1noc(C2CC2)n1)c1cnc2nnn(Cc3ccc4ncccc4c3)c2n1 [Example 95, N-[(5-cyclo-propyl-1,2,4-oxa-diazol-3-yl)meth-yl]-N-methyl-1-(quino-lin-6-yl-methyl)-1H-[1,2,3]tri-azolo[4,5-b]pyra-zin-6-amine] | 20 nM | 
c1cnc2ccc(Cn3nnc4ncc(N5CCc6nc[nH]c6C5)nc43)cc2c1 [Example 100, 6-{[6-(3,4,6,7-tetra-hydro-5H-imi-dazo[4,5-c]pyri-din-5-yl)-1H-[1,2,3]tri-azolo[4,5-b]pyra-zin-1-yl]meth-yl}quinoline] |  | 37 nM
CCc1noc(C2CCN(c3cnc4nnn(Cc5ccc6ncccc6c5)c4n3)CC2)n1 [Example 102, 6-({6-[4-(3-eth-yl-124-oxa-diazol-5-yl)pipe-ridin-1-yl]-1H-[1,2,3]tri-azolo[4,5-b]pyra-zin-1-yl}meth-yl)quinoline] | 24 nM | 
Cc1nccn1CC1(O)CCN(c2cnc3nnn(Cc4ccc5ncccc5c4)c3n2)C1 (stereo not shown) [Example 104, 3-[(2-methyl-1H-imi-dazol-1-yl)meth-yl]-1-[1-(quino-lin-6-yl-methyl)-1H-[1,2,3]tri-azolo[4,5-b]pyra-zin-6-yl]pyrro-lidin-3-ol] |  | 49 nM
O[C@@H]1C[C@H]2CN(c3cnc4nnn(Cc5ccc6ncccc6c5)c4n3)CCN2C1 [Example 105, (7R,8aS)-2-[1-(quino-lin-6-yl-methyl)-1H-[1,2,3]tri-azolo[4,5-b]pyra-zin-6-yl]octa-hydropyrro-lo[12-a]pyra-zin-7-ol] | 29 nM | 
FC(F)c1nnc2n1CCN(c1cnc3nnn(Cc4ccc5ncccc5c4)c3n1)C2 [Example 108, 6-({6-[3-(di-fluoromethyl)-5,6-di-hydro[1,2,4]tri-azolo[4,3-a]pyrazin-7(8H)-yl]-1H-[1,2,3]tri-azolo[4,5-b]pyra-zin-1-yl}meth-yl)quinoline] | 26 nM | 
OCC[C@H]1CN(c2cnc3nnn(Cc4ccc5ncccc5c4)c3n2)C[C@H]1CO [Example 110, 2-{(3R,4S)-4-(hydroxy-methyl)-1-[1-(quino-lin-6-yl-methyl)-1H-[1,2,3]tri-azolo[4,5-b]pyra-zin-6-yl]pyrro-lidin-3-yl}eth-anol] | 23 nM | 
CCC(CO)Nc1cnc2nnn(Cc3ccc4ncccc4c3)c2n1 (stereo not shown) [Example 112, 2-{[1-(quinolin-6-yl-methyl)-1H-[1,2,3]tri-azolo[4,5-b]pyra-zin-6-yl]ami-no}butan-1-ol] | 29 nM | 
CC(O)CNc1cnc2nnn(Cc3ccc4ncccc4c3)c2n1 (stereo not shown) [Example 113, 1-{[1-(quinolin-6-yl-methyl)-1H-[1,2,3]tri-azolo[4,5-b]pyra-zin-6-yl]ami-no}propan-2-ol] | 8 nM | 
CC[C@H](CO)Nc1cnc2nnn(Cc3ccc4ncccc4c3)c2n1 [Example 116, (2R)-2-{[1-(quino-lin-6-yl-methyl)-1H-[1,2,3]tri-azolo[4,5-b]pyra-zin-6-yl]ami-no}butan-1-ol] | 10 nM | 
C[C@H](O)CNc1cnc2nnn(Cc3ccc4ncccc4c3)c2n1 [Example 117, (2S)-1-{[1-(quino-lin-6-yl-methyl)-1H-[1,2,3]tri-azolo[4,5-b]pyra-zin-6-yl]ami-no}propan-2-ol] | 11 nM | 
CN(C)C(=O)CCNc1cnc2nnn(Cc3ccc4ncccc4c3)c2n1 [Example 121, N,N-dimethyl-N~3~-[1-(quino-lin-6-yl-methyl)-1H-[1,2,3]tri-azolo[4,5-b]pyra-zin-6-yl]-beta-alaninamide] | 22 nM | 
CNC(=O)CCNc1cnc2nnn(Cc3ccc4ncccc4c3)c2n1 [Example 125] | 15 nM | 

The next lines start with results.

Ki (read-out: Ki) | Compound | Ki (Ki)
41 nM | CN1CCN(c2cnc3nnn(Cc4ccc5ncccc5c4)c3n2)CC1=O [Example 89, 1-methyl-4-[1-(quino-lin-6-yl-methyl)-1H-[1,2,3]tri-azolo[4,5-b]pyra-zin-6-yl]pipe-razin-2-one] | 
39 nM | CC1(CO)CCCN(c2cnc3nnn(Cc4ccc5ncccc5c4)c3n2)C1 (stereo not shown) [Example 90, {3-methyl-1-[1-(quino-lin-6-yl-methyl)-1H-[1,2,3]tri-azolo[4,5-b]pyra-zin-6-yl]pipe-ridin-3-yl}methanol] | 
16 nM | c1cnc2ccc(Cn3nnc4ncc(N5CCC(CCn6cccn6)CC5)nc43)cc2c1 [Example 92, 6-[(6-{4-[2-(1H-pyra-zol-1-yl)eth-yl]piperidin-1-yl}-1H-[1,2,3]tri-azolo[4,5-b]pyra-zin-1-yl)meth-yl]quinoline] | 
29 nM | CN(Cc1cc(-c2ccccn2)no1)c1cnc2nnn(Cc3ccc4ncccc4c3)c2n1 [Example 93, N-methyl-N-[(3-pyri-din-2-ylisoxa-zol-5-yl)meth-yl]-1-(quino-lin-6-yl-methyl)-1H-[1,2,3]tri-azolo[4,5-b]pyra-zin-6-amine] | 
17 nM | OC[C@@H]1C[C@H](F)CN1c1cnc2nnn(Cc3ccc4ncccc4c3)c2n1 [Example 96] | 
20 nM | CCC1C(=O)NCCN1c1cnc2nnn(Cc3ccc4ncccc4c3)c2n1 (stereo not shown) [Example 97, 3-ethyl-4-[1-(quino-lin-6-yl-methyl)-1H-[1,2,3]tri-azolo[4,5-b]pyra-zin-6-yl]pipe-razin-2-one] | 
13 nM | c1cnc2ccc(Cn3nnc4ncc(N5CCc6[nH]ncc6C5)nc43)cc2c1 [Example 98, 6-{[6-(1,4,6,7-tetra-hydro-5H-pyra-zolo[4,3-c]pyri-din-5-yl)-1H-[1,2,3]tri-azolo[4,5-b]pyra-zin-1-yl]meth-yl}quinoline] | 
21 nM | O[C@@H]1CCN(c2cnc3nnn(Cc4ccc5ncccc5c4)c3n2)C[C@H]1O [Example 99, (3R,4R)-1-[1-(quino-lin-6-yl-methyl)-1H-[1,2,3]tri-azolo[4,5-b]pyra-zin-6-yl]pipe-ridine-3,4-diol] | 
23 nM | CC1(O)CCN(c2cnc3nnn(Cc4ccc5ncccc5c4)c3n2)CC1 [Example 101, 4-methyl-1-[1-(quino-lin-6-yl-methyl)-1H-[1,2,3]tri-azolo[4,5-b]pyra-zin-6-yl]piperidin-4-ol] | 
39 nM | OCC1CCCN1c1cnc2nnn(Cc3ccc4ncccc4c3)c2n1 (stereo not shown) [Example 103, {1-[1-(quinolin-6-yl-methyl)-1H-[1,2,3]tri-azolo[4,5-b]pyra-zin-6-yl]pyrro-lidin-2-yl}methanol] | 
9 nM | OCCC1(CO)CCN(c2cnc3nnn(Cc4ccc5ncccc5c4)c3n2)C1 (stereo not shown) [Example 106, 2-{3-(hydroxy-methyl)-1-[1-(quino-lin-6-ylmethyl)-1H-[1,2,3]tri-azolo[4,5-b]pyra-zin-6-yl]pyr-rolidin-3-yl}ethanol] | 
47 nM | C[C@H]1CN(c2cnc3nnn(Cc4ccc5ncccc5c4)c3n2)C[C@]1(C)CO [Example 107, {(3R,4R)-3,4-di-methyl-1-[1-(quino-lin-6-yl-methyl)-1H-[1,2,3]tri-azolo[4,5-b]pyra-zin-6-yl]pyrro-lidin-3-yl}meth-anol] | 
22 nM | CN(C)C(C(N)=O)C1CCN(c2cnc3nnn(Cc4ccc5ncccc5c4)c3n2)CC1 (stereo not shown) [Example 109, 2-(dimethyl-amino)-2-{1-[1-(quino-lin-6-yl-methyl)-1H-[1,2,3]tri-azolo[4,5-b]pyra-zin-6-yl]pipe-ridin-4-yl}acetamide] | 
27 nM | CC(=O)NCCNc1cnc2nnn(Cc3ccc4ncccc4c3)c2n1 [Example 111, N-(2-{[1-(quino-lin-6-yl-methyl)-1H-[1,2,3]tri-azolo[4,5-b]pyra-zin-6-yl]ami-no}ethyl)aceta-mide] | 
40 nM | C[C@@H](O)CNc1cnc2nnn(Cc3ccc4ncccc4c3)c2n1 [Example 114, (2R)-1-{[1-(quino-lin-6-yl-methyl)-1H-[1,2,3]tri-azolo[4,5-b]pyra-zin-6-yl]ami-no}propan-2-ol] | 
12 nM | O=c1[nH]cccc1CNc1cnc2nnn(Cc3ccc4ncccc4c3)c2n1 [Example 115, 3-({[1-(quinolin-6-yl-methyl)-1H-[1,2,3]tri-azolo[4,5-b]pyra-zin-6-yl]ami-no}meth-yl)pyridin-2(1H)-one] | 
41 nM | C[C@@H](CO)Nc1cnc2nnn(Cc3ccc4ncccc4c3)c2n1 [Example 118, (2S)-2-{[1-(quino-lin-6-yl-methyl)-1H-[1,2,3]tri-azolo[4,5-b]pyra-zin-6-yl]ami-no}propan-1-ol] | 
30 nM | OC[C@@H]1CC=CC[C@@H]1Nc1cnc2nnn(Cc3ccc4ncccc4c3)c2n1 [Example 119, [(1S,6R)-6-{[1-(quino-lin-6-yl-methyl)-1H-[1,2,3]tri-azolo[4,5-b]pyra-zin-6-yl]ami-no}cyclohex-3-en-1-yl]meth-anol] | 
25 nM | c1cnc2ccc(Cn3nnc4ncc(NCc5cnn6cccnc56)nc43)cc2c1 [Example 122, N-(pyrazolo[15-a]pyrimi-din-3-yl-methyl)-1-(quino-lin-6-yl-methyl)-1H-[1,2,3]tri-azolo[4,5-b]pyra-zin-6-amine] | 
8 nM | c1cnc2ccc(Cn3nnc4ncc(NC5CCOC5)nc43)cc2c1 (stereo not shown) [Example 123, 1-(quinolin-6-yl-methyl)-N-(tetra-hydrofuran-3-yl)-1H-[1,2,3]tri-azolo[4,5-b]pyra-zin-6-amine] | 
35 nM | c1cnc2ccc(Cn3nnc4ncc(NCc5cc(C6CC6)[nH]n5)nc43)cc2c1 [Example 124, N-[(5-cyclo-propyl-1H-pyra-zol-3-yl)meth-yl]-1-(quino-lin-6-yl-methyl)-1H-[1,2,3]tri-azolo[4,5-b]pyra-zin-6-amine] | 
16 nM | CC(=O)N1CC[C@@H](Nc2cnc3nnn(Cc4ccc5ncccc5c4)c3n2)C1 [Example 126, N-[(3R)-1-acetyl-pyrrolidin-3-yl]-1-(quino-lin-6-yl-methyl)-1H-[1,2,3]tri-azolo[4,5-b]pyra-zin-6-amine] | 
